This is an account of results in patent US20170326125A1, “MULTISUBSTITUTED AROMATIC COMPOUNDS AS INHIBITORS OF THROMBIN” (VERSEON CORPORATION, priority 2016, published 2017).

Molecules are shown by their SMILES. pIC50: −log10 of the molar value. Where only a bound is given, the exact number is not on record here.

The first data set addresses T1, Human thrombin (Homo sapiens, UniProt P00734).
T1 construct: purchased Haematologic Technologies Inc
Nature of the data set: Inhibition of the protease activity of thrombin (chromogenic substrate S-2238). In kind it is biochemical. The following applies: Table C; 3 nM thrombin, 125 μM S-2238, 10 min pre-incubation, RT.
`COc1ccccc1C(=O)n1nc(-c2ccccc2)nc1NCc1ccco1` [Cmpd 394, N-(furan-2-ylmethyl)-1-[(2-methoxyphenyl)carbonyl]-3-phenyl-1H-1,2,4-triazol-5-amine]: the pIC50 is > 7.00.

`CS(=O)(=O)n1nc(-c2cccnc2)nc1NCc1ccco1` [Cmpd 395, N-(furan-2-ylmethyl)-1-methanesulfonyl-3-(pyridin-3-yl)-1H-1,2,4-triazol-5-amine]: the negative logarithm of the IC50 (pIC50) was < 6.00.

Turning to `O=C(c1cccnc1)n1nc(-c2cccnc2)nc1NCc1ccco1` [Cmpd 396, N-(furan-2-ylmethyl)-3-(pyridin-3-yl)-1-[(pyridin-3-yl)carbonyl]-1H-1,2,4-triazol-5-amine], the pIC50 is < 6.00.

Turning to `O=C(c1cccnc1)n1nc(-c2ccco2)nc1NCc1ccccc1Cl` [Cmpd 397, N-[(2-chlorophenyl)methyl]-3-(furan-2-yl)-1-[(pyridin-3-yl)carbonyl]-1H-1,2,4-triazol-5-amine], the pIC50 was 6.00 to 7.00.

Take `COc1ccccc1CNc1nc(-c2cccnc2)nn1C(=O)c1cccnc1` [Cmpd 398, N-[(2-methoxyphenyl)methyl]-3-(pyridin-3-yl)-1-[(pyridin-3-yl)carbonyl]-1H-1,2,4-triazol-5-amine]: the negative logarithm of the IC50 (pIC50) is < 6.00.

On to `Cc1ccc(C(=O)n2nc(-c3cccnc3)nc2NCc2ccc(F)cc2)cc1` [Cmpd 401, N-[(4-fluorophenyl)methyl]-1-[(4-methylphenyl)carbonyl]-3-(pyridin-3-yl)-1H-1,2,4-triazol-5-amine], for which the pIC50 is > 7.00.

Take `O=C(c1ccco1)n1nc(-c2cccnc2)nc1NCc1ccc(F)cc1` [Cmpd 402, N-[(4-fluorophenyl)methyl]-1-[(furan-2-yl)carbonyl]-3-(pyridin-3-yl)-1H-1,2,4-triazol-5-amine]: the negative-log IC50 (pIC50) was > 7.00.

Regarding `O=C(c1cccs1)n1nc(-c2cccnc2)nc1NCc1ccc(F)cc1` [Cmpd 403, N-[(4-fluorophenyl)methyl]-3-(pyridin-3-yl)-1-[(thiophen-2-yl)carbonyl]-1H-1,2,4-triazol-5-amine], the negative-log IC50 (pIC50) was > 7.00.

Regarding `COc1ccc(CNc2nc(-c3cccnc3)nn2C(=O)c2ccc(C)cc2)cc1` [Cmpd 404, N-[(4-methoxyphenyl)methyl]-1-[(4-methylphenyl)carbonyl]-3-(pyridin-3-yl)-1H-1,2,4-triazol-5-amine], the negative-log IC50 (pIC50) is 6.00 to 7.00.

For the molecule `COc1ccc(CNc2nc(-c3cccnc3)nn2C(=O)c2cccs2)cc1` [Cmpd 405, N-[(4-methoxyphenyl)methyl]-3-(pyridin-3-yl)-1-[(thiophen-2-yl)carbonyl]-1H-1,2,4-triazol-5-amine], the pIC50 was < 6.00.

Take `CC(=O)Nc1n[nH]c(NCc2ccccc2)n1` [Cmpd 406, N-[5-(benzylamino)-1H-1,2,4-triazol-3-yl]acetamide]: the pIC50 was < 6.00.

As for `O=C(Nc1n[nH]c(-c2ccco2)n1)c1ccccc1` [Cmpd 407, N-[5-(furan-2-yl)-1H-1,2,4-triazol-3-yl]benzamide], the negative logarithm of the IC50 (pIC50) was < 6.00.

For `O=C(c1ccccc1Cl)n1nc(-c2ccco2)nc1NCc1ccccc1` [Cmpd 408, N-benzyl-1-[(2-chlorophenyl)carbonyl]-3-(furan-2-yl)-1H-1,2,4-triazol-5-amine], the pIC50 was > 7.00.

On to `O=C(c1ccccc1Cl)n1nc(-c2cccs2)nc1NCc1ccccc1` [Cmpd 409, N-benzyl-1-[(2-chlorophenyl)carbonyl]-3-(thiophen-2-yl)-1H-1,2,4-triazol-5-amine], for which the pIC50 was > 7.00.

Take `Cc1ccc(C(=O)n2nc(-c3cccnc3)nc2NCc2ccccc2)cc1` [Cmpd 411, N-benzyl-1-[(4-methylphenyl)carbonyl]-3-(pyridin-3-yl)-1H-1,2,4-triazol-5-amine]: the pIC50 is > 7.00.

`O=C(c1cccs1)n1nc(-c2cccs2)nc1NCc1ccccc1` [Cmpd 412, N-benzyl-3-(thiophen-2-yl)-1-[(thiophen-2-yl)carbonyl]-1H-1,2,4-triazol-5-amine]: the negative-log IC50 (pIC50) was < 6.00.

The next data set relates to malignant breast tumors.
Assay: not given
The settings on record: at 4 weeks, treated mice; cited from earlier work.
For the molecule `CCCCCCOC(=O)NC(=N)c1ccc(NCc2nc3cc(C(=O)N(CCC(=O)OCC)c4ccccn4)ccc3n2C)cc1` [dabigatran etexilate], the “reduction in tumor volume” value is given as 50%.

Staying with this data set, now noted: at 4 weeks; cited from earlier work.
On to `CCCCCCOC(=O)NC(=N)c1ccc(NCc2nc3cc(C(=O)N(CCC(=O)OCC)c4ccccn4)ccc3n2C)cc1` [dabigatran etexilate], for which the “weight loss in treated mice” value is “no weight loss”.

Still in this data set, the particulars now being: treated mice; cited from earlier work.
Turning to `CCCCCCOC(=O)NC(=N)c1ccc(NCc2nc3cc(C(=O)N(CCC(=O)OCC)c4ccccn4)ccc3n2C)cc1` [dabigatran etexilate], the “reduced tumor cells in the blood and liver micrometastases” value was 50-60%.
